Experimental data: patent US11034650B2, “Compounds useful for treating a Mannheimia haemolytica or Histophilus somni infection” (Intervet Inc., priority 2016, dated 2021)
≈ marks a conversion by molar mass, not a printed value.

Legend:
Type in all cases: cell-based
[1] = system: Mannheimia haemolytica MH 6357 (M7/2, reference strain, cattle infection strain); test: MIC, broth-microdilution (CLSI VET01-A4), strain MH 6357; conditions: Mannheimia haemolytica strain MH 6357, broth-microdilution; unit assumed
Summary of the method: (§1)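 The compound was titrated in twofold steps in microdilution trays. Absence of turbidity, checked without instruments, marked the MIC at the lowest such concentration.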

[2] = system: Mannheimia haemolytica MH 6374 (ATCC 33396, reference strain); test: MIC, broth-microdilution (CLSI VET01-A4), strain MH 6374; conditions: Mannheimia haemolytica strain MH 6374, broth-microdilution; unit assumed
Summary of the method: as §1

[3] = system: Mannheimia haemolytica MH 10720 (154, BRD field isolate); test: MIC, broth-microdilution (CLSI VET01-A4), strain MH 10720; conditions: Mannheimia haemolytica strain MH 10720, broth-microdilution; unit assumed
Summary of the method: as §1

[4] = system: Mannheimia haemolytica MH 12587 (1071, BRD field isolate, macrolide-resistance: erm+, E+); test: MIC, broth-microdilution (CLSI VET01-A4), strain MH 12587; conditions: Mannheimia haemolytica strain MH 12587, broth-microdilution; unit assumed
Summary of the method: as §1

[5] = system: Mannheimia haemolytica MH 13065 (XB0446-6003.9, BRD field isolate); test: MIC, broth-microdilution (CLSI VET01-A4), strain MH 13065; conditions: Mannheimia haemolytica strain MH 13065, broth-microdilution; unit assumed
Summary of the method: as §1

[6] = system: Mannheimia haemolytica MH 13093 (XB0472-6014.1, BRD field isolate); test: MIC, broth-microdilution (CLSI VET01-A4), strain MH 13093; conditions: Mannheimia haemolytica strain MH 13093, broth-microdilution; unit assumed
Summary of the method: as §1

[7] = system: Pasteurella multocida PM 6267 (P 2225 (L386), reference strain, mouse infection strain); test: MIC, broth-microdilution (CLSI VET01-A4), strain PM 6267; conditions: Pasteurella multocida strain PM 6267, broth-microdilution; unit assumed
Summary of the method: as §1

[8] = system: Pasteurella multocida PM 6391 (ATCC 43137, reference strain); test: MIC, broth-microdilution (CLSI VET01-A4), strain PM 6391; conditions: Pasteurella multocida strain PM 6391, broth-microdilution; unit assumed
Summary of the method: as §1

[9] = system: Pasteurella multocida PM 10775 (080130003051, BRD field isolate); test: MIC, broth-microdilution (CLSI VET01-A4), strain PM 10775; conditions: Pasteurella multocida strain PM 10775, broth-microdilution; unit assumed
Summary of the method: as §1

[10] = system: Pasteurella multocida PM 12080 (IV102277-0093, BRD field isolate); test: MIC, broth-microdilution (CLSI VET01-A4), strain PM 12080; conditions: Pasteurella multocida strain PM 12080, broth-microdilution; unit assumed
Summary of the method: as §1

Row | Compound | MIC PM 6267 [7] [µg/mL] | MIC PM 6391 [8] [µg/mL] | MIC PM 10775 [9] [µg/mL] | MIC PM 12080 [10] [µg/mL] | MIC MH 6357 [1] [µg/mL] | MIC MH 6374 [2] [µg/mL] | MIC MH 10720 [3] [µg/mL] | MIC MH 12587 [4] [µg/mL] | MIC MH 13065 [5] [µg/mL] | MIC MH 13093 [6] [µg/mL]
1 | C=CCNCc1ccc(C#Cc2ccc(C(=O)N[C@H](C(=O)NO)C(C)=NOC)cc2)cc1 [Compound 379] | 3.1 (≈ 7.13 µM) | ≤ 0.1 | 0.4 (≈ 0.921 µM) | 0.4 (≈ 0.921 µM) | 0.8 (≈ 1.84 µM) | 1.6 (≈ 3.68 µM) | 0.8 (≈ 1.84 µM) | 0.4 (≈ 0.921 µM) | 1.6 (≈ 3.68 µM) | 1.6 (≈ 3.68 µM)
2 | COCCNCc1ccc(C#Cc2ccc(C(=O)N[C@H](C(=O)NO)C(C)=NOC)cc2)cc1 [Compound 380] | 6.3 (≈ 13.9 µM) | 0.2 (≈ 0.442 µM) | 1.6 (≈ 3.54 µM) | 0.8 (≈ 1.77 µM) | 3.1 (≈ 6.85 µM) | 6.3 (≈ 13.9 µM) | 3.1 (≈ 6.85 µM) | 0.8 (≈ 1.77 µM) | 3.1 (≈ 6.85 µM) | 6.3 (≈ 13.9 µM)
3 | CON=C(C)[C@H](NC(=O)c1ccc(C#Cc2ccc(CN3CCOCC3)cc2)cc1)C(=O)NO [Compound 381] | 1.6 (≈ 3.44 µM) | ≤ 0.1 | 0.2 (≈ 0.431 µM) | 0.2 (≈ 0.431 µM) | 1.6 (≈ 3.44 µM) | 3.1 (≈ 6.67 µM) | 0.4 (≈ 0.861 µM) | 1.6 (≈ 3.44 µM) | 1.6 (≈ 3.44 µM) | 1.6 (≈ 3.44 µM)
4 | CON=C(C)[C@H](NC(=O)c1ccc(C#Cc2ccc(CNCc3cccnc3)cc2)cc1)C(=O)NO [Compound 388] | 3.1 (≈ 6.38 µM) | ≤ 0.1 | 0.2 (≈ 0.412 µM) | ≤ 0.1 | 0.4 (≈ 0.824 µM) | 0.8 (≈ 1.65 µM) | 0.8 (≈ 1.65 µM) | 0.2 (≈ 0.412 µM) | 0.8 (≈ 1.65 µM) | 0.8 (≈ 1.65 µM)
5 | CON=C(C)[C@H](NC(=O)c1ccc(C#Cc2ccc(CNCc3ccnc(Cl)c3)cc2)cc1)C(=O)NO [Compound 389] | 3.1 (≈ 5.96 µM) | ≤ 0.1 | 0.4 (≈ 0.769 µM) | 0.4 (≈ 0.769 µM) | 0.8 (≈ 1.54 µM) | 1.6 (≈ 3.08 µM) | 0.8 (≈ 1.54 µM) | 0.4 (≈ 0.769 µM) | 1.6 (≈ 3.08 µM) | 1.6 (≈ 3.08 µM)

More lines, main results first:

Row | MIC PM 6267 [7] [µg/mL] | MIC PM 6391 [8] [µg/mL] | MIC PM 10775 [9] [µg/mL] | MIC PM 12080 [10] [µg/mL] | Compound | MIC MH 6357 [1] [µg/mL] | MIC MH 6374 [2] [µg/mL] | MIC MH 10720 [3] [µg/mL] | MIC MH 12587 [4] [µg/mL] | MIC MH 13065 [5] [µg/mL] | MIC MH 13093 [6] [µg/mL]
6 | 0.8 (≈ 1.65 µM) | ≤ 0.1 | 0.4 (≈ 0.825 µM) | 0.4 (≈ 0.825 µM) | CON=C(C)[C@H](NC(=O)c1ccc(C#Cc2ccc(CNCc3ccccc3)cc2)cc1)C(=O)NO [Compound 382] | 0.8 (≈ 1.65 µM) | 1.6 (≈ 3.3 µM) | 0.8 (≈ 1.65 µM) | 0.2 (≈ 0.413 µM) | 0.8 (≈ 1.65 µM) | 0.8 (≈ 1.65 µM)
7 | 6.3 (≈ 12.2 µM) | ≤ 0.1 | 0.8 (≈ 1.55 µM) | 0.4 (≈ 0.777 µM) | CON=C(C)[C@H](NC(=O)c1ccc(C#Cc2ccc(CNCc3ccc(OC)cc3)cc2)cc1)C(=O)NO [Compound 383] | 0.8 (≈ 1.55 µM) | 1.6 (≈ 3.11 µM) | 0.8 (≈ 1.55 µM) | 0.4 (≈ 0.777 µM) | 1.6 (≈ 3.11 µM) | 1.6 (≈ 3.11 µM)
8 | 12.5 (≈ 27.9 µM) | 0.4 (≈ 0.892 µM) | 3.1 (≈ 6.91 µM) | 1.6 (≈ 3.57 µM) | CON=C(C)[C@H](NC(=O)c1ccc(C#Cc2ccc(CN3CCCC3)cc2)cc1)C(=O)NO [Compound 384] | 6.3 (≈ 14 µM) | 12.5 (≈ 27.9 µM) | 3.1 (≈ 6.91 µM) | 1.6 (≈ 3.57 µM) | 6.3 (≈ 14 µM) | 6.3 (≈ 14 µM)
9 | 25 (≈ 55.7 µM) | 0.2 (≈ 0.446 µM) | 0.8 (≈ 1.78 µM) | 0.4 (≈ 0.892 µM) | CON=C(C)[C@H](NC(=O)c1ccc(C#Cc2ccc(CNC3CCC3)cc2)cc1)C(=O)NO [Compound 385] | 3.1 (≈ 6.91 µM) | 6.3 (≈ 14 µM) | 1.6 (≈ 3.57 µM) | 1.6 (≈ 3.57 µM) | 3.1 (≈ 6.91 µM) | 6.3 (≈ 14 µM)
10 | 50 (≈ 108 µM) | 0.4 (≈ 0.865 µM) | 1.6 (≈ 3.46 µM) | 0.4 (≈ 0.865 µM) | CON=C(C)[C@H](NC(=O)c1ccc(C#Cc2ccc(CNC3CCCC3)cc2)cc1)C(=O)NO [Compound 386] | 12.5 (≈ 27 µM) | 12.5 (≈ 27 µM) | 1.6 (≈ 3.46 µM) | 1.6 (≈ 3.46 µM) | 12.5 (≈ 27 µM) | 12.5 (≈ 27 µM)
11 | 25 (≈ 57.3 µM) | 0.4 (≈ 0.916 µM) | 1.6 (≈ 3.67 µM) | 0.2 (≈ 0.458 µM) | CCCNCc1ccc(C#Cc2ccc(C(=O)N[C@H](C(=O)NO)C(C)=NOC)cc2)cc1 [Compound 387] | 6.3 (≈ 14.4 µM) | 6.3 (≈ 14.4 µM) | 3.1 (≈ 7.1 µM) | 1.6 (≈ 3.67 µM) | 6.3 (≈ 14.4 µM) | 3.1 (≈ 7.1 µM)
